Legend:
[1] = Determination of fade time T1/2 after isolation from the activating UV light; assay type: physicochemical; parameters: key: *: Fades too fast to obtain readings; conditions: chloroform, room temperature (72° F.)
Protocol: (§1) Each of the photochromic compounds (compound P) formed in step 2 of Examples 1-13 and Comparative Example 1 were independently dissolved in separate containers of chloroform. Additionally, a purchased sample of 3,3-diphenyl-naphtho-3H[2,1-b]pyran, identified as Comparative Example 2, was dissolved in a separate container of chloroform.
(§2) Each of the chloroform-dissolved photochromic compounds of Examples 1-13 and Comparative Examples 1-2 were then irradiated with ultraviolet light with a maximum wavelength of 350 nanometers and were measured for maximum absorption wavelength) λmax. The fade time, T1/2 was then determined for each of the irradiated compounds. The fade time for a particular chloroform dissolved photochromic compound is defined as the time interval, at room temperature (72° F.), for the absorbance of the activated form of the chloroform-dissolved photochromic compound to decrease to 1/2 of the maximum absorbance, after the photochromic compound is isolated from the activating source of ultraviolet light. The maximum absorption wavelength and fade time determined for each of the irradiated photochromic compounds of Examples 1-13 and Comparative Examples 1-2 are presented in Table 1: […]

[2] = Determination of maximum absorption wavelength (λmax) after UV irradiation in solution; assay type: physicochemical; conditions: for λmax: chloroform, irradiated with ultraviolet light with a maximum wavelength of 350 nanometers
Protocol: as §1, §2

[3] = as above; assay type: physicochemical; parameters: key: *: Fades too fast to obtain readings; conditions: cyclohexane
[4] = U.S. Pat. No. 3,567,605 to Becker; cited from earlier work
[5] = Color of the compound or blend when activated by ultraviolet light; assay type: physicochemical
[6] = absorbance of activated form to decrease to 1/2 of maximum

Compound | T1/2 (fade time) [1, 6] [s] | λmax [2] [Nanometers] | λmax [3] [Nanometers] | other results
COc1ccc2c3c(ccc2c1)OC(c1ccccc1)(c1ccccc1)C=C3 [Comparative Example 1, 3,3-diphenyl-8-methoxy-3H-naphtho[2,1-b]pyran, reference compound] | 10 | 472 | 451 | 
C1=CC(c2ccccc2)(c2ccccc2)Oc2ccc3ccccc3c21 [Comparative Example 2, 3,3-diphenyl-naphtho-3H[2,1-b]pyran, reference compound] | 13 | 435 | 415 | photochromism [4]: photochromic at room temperature
COc1ccc2c3c(ccc2c1)OC1(C=C3)c2ccccc2-c2ccccc21 [Example 1, 8-methoxyspiro(3H-naphtho [2,1-b]pyran-3,9'-fluorene)] | 20 | 492 | 478 | color when activated by ultraviolet light [5]: deep shade of orange; color of blend with blue-turning photochromic compounds when activated by ultraviolet radiation ([5]; blended with blue-turning photochromic compounds, such as substituted spiroindolino naphthoxazine): desirable, intense shade of gray; activated maximum wavelength of absorption ([2]; dissolved in chloroform, irradiated with ultraviolet light): about 492 nanometers; maximum wavelength of activation, compared with Comparative Example 1 ([2]; vs 3,3-diphenyl-8-methoxy-3H-naphtho[2,1-b]pyran): longer maximum wavelength of activation
COc1ccc2c3c(ccc2c1)OC1(C=C3)CCCc2ccccc21 (stereo not drawn) [Example 2, 8-methoxyspiro(3H-naphtho[2,1-b]pyran-3,1'-tetralone)] | 15 | 474 | 465 | 
COc1ccc2c3c(ccc2c1)OC1(C=C3)CCCc2cc(OC)c(OC)cc21 (stereo not drawn) [Example 3, 6',7'-dimethoxy-8-methoxyspiro(3H-naphtho[2,1-b]pyran-3,1'-tetralone)] |  | 445 |  | T1/2 (fade time) ([1]; symbol, no reading): *; λmax ([3]; symbol, no reading): *
COc1ccc2c3c(ccc2c1)OC1(C=C3)c2ccccc2CC(c2ccccc2)C1c1ccccc1 (stereo not drawn) [Example 5] | 13 | 476 |  | 
COc1ccc2c3c(ccc2c1)OC1(C=C3)c2ccccc2CCC1C (stereo not drawn) [Example 6, 2'-methyl-8-methoxyspiro(3H-naphtho[2,1-b]pyran-3,1'-tetralone)] | 1.2 | 468 |  | 
COc1ccc2c3c(ccc2c1)OC1(C=C3)c2ccccc2CC1C (stereo not drawn) [Example 7, 2'-methyl-8-methoxyspiro(3H-naphtho[2,1-b]pyran-3,1'-indan)] | 396 | 478 |  | 
COc1ccc2c3c(ccc2c1)OC1(C=C3)C(c2ccccc2)=C(c2ccccc2)c2ccccc21 (stereo not drawn) [Example 8, 2',3'-diphenyl-8-methoxyspiro(3H-naphtho[2,1-b]pyran-3,1'-indene)] | 64 | 512 |  | 
C1=CC2(Oc3ccc4ccccc4c31)c1ccccc1-c1ccccc12 [Example 9, spiro(3H-naphtho[2,1-b]pyran-3,9'-fluorene)] | 10 | 445 | 438 | maximum wavelengths of activation, compared with Comparative Example 2 ([2]; vs 3,3-diphenyl-naphtho-3H[2,1-b]pyran): longer maximum wavelengths of activation
CC1CCc2ccccc2C12C=Cc1c(ccc3ccccc13)O2 (stereo not drawn) [Example 11, 2'-methylspiro(3H-naphtho[2,1-b]pyran-3,1'-tetralone)] |  | 444 |  | T1/2 (fade time) ([1]; symbol, no reading): *
C1=CC2(Oc3ccc4ccccc4c31)C(c1ccccc1)=C(c1ccccc1)c1ccccc12 (stereo not drawn) [Example 13] | 35 | 454 |  | 
